Measured values from article PMC2364952, “The Anti-Inflammatory Activity of Boron Derivatives in Rodents” (Metal-Based Drugs, 1995).

How the values were obtained:
[1] = system: cathepsin; assay: Cathepsin activity, mouse macrophages; type: cell-based, mouse (J774 macrophages); details: Table 3; read-out: IC50 Cathepsin, Mouse Macrophage
[2] = target: elastase; assay: Elastase activity, mouse macrophages; type: cell-based, mouse (J774 macrophages); details: Table 5; read-out: IC50 Elastase, Mouse Macrophage
[3] = system: tail flick response to heat; assay: Hot plate tail flick screen; type: in vivo, CF1 male mice; details: for Mice Tail Flick: 8 mg/kg I.P., hot plate, Table 2; for tail flick assay time / blocking central pain compared with morphine: mice; for tail flick assay time: 8 mg/kg; for blocking central pain compared with morphine: tail flick
[4] = target: prostaglandin cyclooxygenase; assay: Prostaglandin cyclooxygenase activity, macrophages; type: cell-based, mouse (J774 macrophages); details: Table 7
[5] = target: acid phosphatase; assay: Acid phosphatase activity, mouse macrophages; type: cell-based, mouse (J774 macrophages); details: Table 3; read-out: IC50 Acid Phosphatase, Mouse Macrophage
[6] = system: trypsin; assay: Trypsin proteolytic activity, mouse macrophages; type: cell-based, mouse (J774 macrophages); details: Table 5; read-out: IC50 Trypsin, Mouse Macrophage
[7] = system: acetic acid induced stretch reflex; assay: Local analgesic screen (acetic acid writhing); type: in vivo, CF1 mice; details: for Mice Writhing Reflex: 8 mg/kg I.P., Table 2; for reduction of the reflex action: mice, acetic acid induced local pain, 8 mg/kg
[8] = system: carrageenan-induced inflammation of paw; assay: Carrageenan-induced paw edema, rats; type: in vivo, Sprague Dawley male rats; details: for reduction in induced edema in rats: 8 mg/kg x 2; for Rat Inflammatory: 8 mg/kg x 2, I.P., Table 2;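 on Rat Inflammatory: paw weight increase as percent of control rats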
[9] = system: carrageenan-induced pleural fluid; assay: Anti-pleurisy screen; type: in vivo, Sprague Dawley male rats; details: for pleurisy edema in rats: 8 mg/kg; for Rat Pleurisy: rats, 8 mg/kg I.P., 1 h before and 3 h after carrageenan, Table 2;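 on Rat Pleurisy: Pleural fluid volume as percent of control rats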
[10] = target: aryl sulphatase; assay: Aryl sulfatase activity, mouse macrophages; type: cell-based, mouse (J774 macrophages); details: Table 3; read-out: IC50 Aryl Sulfatase, Mouse Macrophage
[11] = system: carrageenan-induced inflammation of hind foot; assay: Carrageenan-induced foot edema, mice; type: in vivo, CF1 male mice; details: for anti-inflammatory activity in mouse edema screen / reduction of induced edema: mice; for anti-inflammatory activity in mouse edema screen: 8 mg/kg x 2; for reduction of induced edema: 8 mg/kg x 2, I.P., carrageenan; for inhibition of induced inflammation: standards at their therapeutic dose (indomethacin 8 mg/kg x 2, pentoxifylline and phenylbutazone 50 mg/kg x 2)

`C[NH+](C)[BH2-]C(=O)O` [Compound 3] was tested, and the IC50 [1] was 6.39 µM, the IC50 [2] was 2.67 µM and the “Mice Tail Flick” value [3] was 156 % of control. For the same compound, the “tail flick assay time” value [3] was “increased”, the IC50 [4] was 2.91 µM and the IC50 [5] was 4.75 µM. It also gave an IC50 [6] of 3.1 µM.
In the case of `C[N+](C)(C)[BH2-]C(=O)O` [Compound 4], the “Mice Writhing Reflex” value [7] is reported as 2 % of control, the “reduction of the reflex action” value [7] is reported as 80% and the “reduction in induced edema in rats” value [8] is reported as “at least 40%”. The “Rat Inflammatory” value [8] was 55 % of control.
For `CC[NH2+][BH2-]C(=O)O` [Compound 5], the “Mice Writhing Reflex” value [7] was 1 % of control, the “reduction of the reflex action” value [7] was 80% and the “Mice Tail Flick” value [3] was 196 % of control. For the same compound, the “tail flick assay time” value [3] was “increased”, the “reduction in induced edema in rats” value [8] was “at least 40%” and the “Rat Inflammatory” value [8] was 59 % of control.
With `CCC[NH+]([BH2-]C(=O)O)CCC` [Compound 6] the “Mice Writhing Reflex” value [7] was 19 % of control, the “reduction in induced edema in rats” value [8] was “at least 40%” and the “Rat Inflammatory” value [8] was 55 % of control.
With `CCCCCCCCCCCCCCCCCC[N+](C)(C)[BH2-]C(=O)O` [Compound 9] the IC50 [1] was 5.09 µM, the IC50 [2] was 6.29 µM and the “Mice Writhing Reflex” value [7] was 14 % of control. The “reduction of the reflex action” value [7] was 80%, the “Mice Tail Flick” value [3] was 231 % of control and the “tail flick assay time” value [3] was “increased”. The “blocking central pain compared with morphine” value [3] was “as effective as morphine”, the IC50 [4] was 2.51 µM and the IC50 [5] was 5.34 µM. The “Rat Inflammatory” value [8] was 72 % of control, the “pleurisy edema in rats” value [9] was “reduced significantly” and the “Rat Pleurisy” value [9] was 37 % of control. The IC50 [6] was 2.07 µM.
With `O=C(O)[BH2-][n+]1ccccc1` [Compound 11] the “Rat Inflammatory” value [8] was 77 % of control.
Work on `COC(=O)[BH2-][N+](C)(C)C` [Compound 16] yielded an IC50 [10] of 17.6 µM, an IC50 [1] of 8.28 µM and an IC50 [2] of 8.76 µM. The “Mice Writhing Reflex” value [7] was 2 % of control, the “reduction of the reflex action” value [7] was 80% and the “Mice Tail Flick” value [3] was 180 % of control. For the same compound, the “tail flick assay time” value [3] was “increased”, the IC50 [4] was 2.41 µM and the IC50 [5] was 3.55 µM. For the same compound, the “Rat Inflammatory” value [8] was 71 % of control, the “anti-inflammatory activity in mouse edema screen” value (“anti-inflammatory activity” below) [11] was “less active” and the “pleurisy edema in rats” value [9] was “reduced significantly”. The “Rat Pleurisy” value [9] was 45 % of control and the IC50 [6] was 3.23 µM.
`CCCCCCCCCCCCCCCC[N+](C)(C)[BH2-]C(=O)OCC` [Compound 19] was tested, and the “anti-inflammatory activity” value [11] was “less active”.
With `CCNC(=O)[BH2-][NH2+]C` [Compound 23] the IC50 [10] was 9.27 µM, the IC50 [1] was 3.95 µM and the IC50 [2] was 3.29 µM. The “Mice Writhing Reflex” value [7] was 27 % of control, the “reduction of the reflex action” value [7] was “at least 45%” and the “Mice Tail Flick” value [3] was 81 % of control. For the same compound, the IC50 [4] was 5.19 µM, the IC50 [5] was 1.12 µM and the “reduction in induced edema in rats” value [8] was “at least 40%”. For the same compound, the “Rat Inflammatory” value [8] was 41 % of control and the IC50 [6] was 2.03 µM.
For `CCNC(=O)[BH2-][N+](C)(C)C` [Compound 25], the “Mice Writhing Reflex” value [7] was 89 % of control.
`CCCCNC(=O)[BH2-][N+](C)(C)C` [Compound 27] was tested, and the “reduction of the reflex action” value [7] was “at least 45%”.
In the case of `CCNC(=O)[BH2-][N+](C)(C)CC[N+](C)(C)[BH2-]C(=O)NCC` [Compound 30], the “Mice Writhing Reflex” value [7] is reported as 34 % of control.
With `CCCCCCCCCCCCCCCCCC[N+](C)(C)[BH2-]C#N` [Compound 36] the IC50 [1] was 3.69 µM, the IC50 [2] was 10.3 µM and the “Mice Writhing Reflex” value [7] was 61 % of control. The “reduction of the reflex action” value [7] was “at least 45%”, the IC50 [4] was 2.23 µM and the IC50 [5] was 2.68 µM. For the same compound, the “anti-inflammatory activity” value [11] was “good activity” and the IC50 [6] was 4.34 µM.
With `N#C[BH2-][P+](c1ccccc1)(c1ccccc1)c1ccccc1` [Compound 48] the “Mice Writhing Reflex” value [7] was 50 % of control, the “reduction of the reflex action” value [7] was “at least 45%” and the “Mice Tail Flick” value [3] was 134 % of control. For the same compound, the “Rat Inflammatory” value [8] was 78 % of control.
With `CCNC(=O)[BH2-][P+]([O-])(OCC)OCC.[Na+]` [Compound 54] the “reduction of induced edema” value [11] was “at least 40%”.
In the case of `CCCC[N+](CCCC)(CCCC)CCCC.CCNC(=O)[BH2-][P+]([O-])(OCC)OCC` [Compound 57], the IC50 [1] is reported as 6.49 µM, the IC50 [2] is reported as 9.01 µM and the IC50 [4] is reported as 3.09 µM. For the same compound, the IC50 [5] was 4.43 µM and the IC50 [6] was 3.76 µM.
For `CC[N+]([BH2-]C#N)(CC)CP(=O)(OC)OC` [Compound 62], the “reduction of induced edema” value [11] was “at least 40%”.
With `CC[N+]([BH2-]C#N)(CC)CP(=O)(OC(C)C)OC(C)C` [Compound 64] the “reduction of induced edema” value [11] was “at least 40%”.
In the case of `CCOP(=O)(C[N+](C)(C)[BH2-]C#N)OCC` [Compound 66], the “reduction of induced edema” value [11] is reported as “at least 40%”.
For `CC(C)OP(=O)(C[NH+](C)[BH2-]C#N)OC(C)C` (centres unmarked) [Compound 67], the “reduction of induced edema” value [11] was “at least 40%”.
For `CCOC(=O)[BH2-][N+](C)(C)CP(=O)(OCC)OCC` [Compound 68], the “reduction of induced edema” value [11] was “at least 40%”.
For `CCNC(=O)[BH2-][NH+](C)CP(=O)(OCC)OCC` (centres unmarked) [Compound 69], the “reduction of induced edema” value [11] was “at least 40%”.
In the case of `CC(C)OP(=O)(C[NH+](C)[BH2-]C(=O)O)OC(C)C` (centres unmarked) [Compound 71], the “reduction of induced edema” value [11] is reported as “at least 40%”.
With `CCNC(=O)[BH2-][NH+](C)CP(=O)(OC(C)C)OC(C)C` (centres unmarked) [Compound 73] the “reduction of induced edema” value [11] was “at least 40%”.
With `C[NH2+][BH2-]C(=O)NO.[H+].c1ccc([B-](c2ccccc2)(c2ccccc2)c2ccccc2)cc1` [Compound 75] the IC50 [10] was 1.5 µM, the IC50 [1] was 4.58 µM and the IC50 [2] was 7.59 µM. The “Mice Writhing Reflex” value [7] was 34 % of control, the “reduction of the reflex action” value [7] was “at least 45%” and the “Mice Tail Flick” value [3] was 279 % of control. The “tail flick assay time” value [3] was “increased”, the “blocking central pain compared with morphine” value [3] was “as effective as morphine” and the IC50 [4] was 6.61 µM. For the same compound, the IC50 [5] was 6.61 µM, the “reduction of induced edema” value [11] was “at least 40%” and the IC50 [6] was 2.51 µM.
In the case of `C[N+](C)(C)[BH2-]C(=O)NO.[H+].c1ccc([B-](c2ccccc2)(c2ccccc2)c2ccccc2)cc1` [Compound 76], the IC50 [10] is reported as 1.37 µM, the IC50 [1] is reported as 1.69 µM and the IC50 [2] is reported as 4.83 µM. For the same compound, the “Mice Writhing Reflex” value [7] was 45 % of control, the “reduction of the reflex action” value [7] was “at least 45%” and the “Mice Tail Flick” value [3] was 258 % of control. For the same compound, the “tail flick assay time” value [3] was “increased”, the “blocking central pain compared with morphine” value [3] was “as effective as morphine” and the IC50 [4] was 1.61 µM. The IC50 [5] was 3.96 µM, the “Rat Inflammatory” value [8] was 60 % of control and the “reduction of induced edema” value [11] was “at least 40%”. The “pleurisy edema in rats” value [9] was “reduced significantly”, the “Rat Pleurisy” value [9] was 50 % of control and the IC50 [6] was 2.06 µM.
In the case of `C[N+]1([BH2-]C(=O)O)CCOCC1` [Compound 84], the “reduction of induced edema” value [11] is reported as “at least 30%”.
`COC(=O)[BH2-][NH+]1CCC(c2ccccc2)CC1` (centres unmarked) [Compound 87] was tested, and the IC50 [1] was 3.99 µM, the IC50 [2] was 6.98 µM and the “Mice Writhing Reflex” value [7] was 89 % of control. The IC50 [5] was 2.68 µM, the “reduction of induced edema” value [11] was “at least 30%” and the IC50 [6] was 2.85 µM.
In the case of `Cc1[nH]cc[n+]1[BH2-]C#N` [Compound 91], the “reduction of induced edema” value [11] is reported as “at least 30%”.
`CN1CC[C@]23c4c5ccc(O)c4O[C@H]2[C@@H](O)C=C[C@H]3[C@H]1C5` [Morphine, morphine, reference compound] was tested, and the “Mice Tail Flick” value [3] was 213 % of control.
In the case of `CCCCC1C(=O)N(c2ccccc2)N(c2ccccc2)C1=O` [Phenylbutazone, phenylbutazone, reference compound], the “Rat Inflammatory” value [8] is reported as 47 % of control and the “inhibition of induced inflammation” value [11] is reported as 47%.
In the case of `CC(=O)CCCCn1c(=O)c2c(ncn2C)n(C)c1=O` [pentoxifylline, reference compound], the “inhibition of induced inflammation” value [11] is reported as 30%.
